# Measured values as given in publication PMC10746103, “Development of a HPLC-MS/MS Method to Assess the Pharmacokinetics and Tumour Distribution of the Dimethylarginine Dimethylaminohydrolase 1 Inhibitors ZST316 and L-257 in a Xenograft Model of Triple-Negative Breast Cancer in Mice” (Molecules, 2023).
# “And” between values parts separate entries of the source, which are not always exact repeats. Equal entries are not always repeated. “Also recorded” adds a separate entry of the source. Where two headings read alike, the source gives them in different places.
# Tests used:
# [1] = Tumour distribution of ZST316 and L-257 after intraperitoneal ZST316 in MDA-MB-231 TNBC xenograft (HPLC-MS/MS); type: in vivo, SCID mice; details: for time intra-tumour concentration remained above the IC50 and Ki values for DDAH1 inhibition: estimated
# Experimental: (§1) Six-week-old female severe combined immunodeficiency disease (SCID) mice (n = 24; Charles River Laboratories Italia S.r.L., Calco, Lecco, Italy), were housed under rigorous standards and handled under pathogen-free conditions in the Animal Care Facilities of the Mario Negri Institute for Pharmacological Research (Milan, Italy).
# (§2) Two ×10^6 (in 10 μL) MDA-MB-231 TNBC cells were transplanted into the mammary fat pad. Tumour growth was regularly monitored with a calliper and treatment with ZST316 was given when the tumour volume reached 400–500 mm^3. Mice received either a single dose (acute treatment) or a daily dose of ZST316 30 mg/Kg intraperitoneally for five days (chronic treatment).
# (§3) Plasma and tumour tissue (n = 3 mice/each time point) were sampled at 1, 8 and 24 h after treatment (on day 5 for the chronic treatment). To collect plasma, mice were anesthetized by isoflurane, the blood was drained from the retro-orbital plexus into heparinised tubes and centrifuged for 10 min at 4000× g at 4 °C. Tumours were collected and immediately frozen. Plasma and tumour samples were stored at −20 °C until analysis.
# Control MDA-MB-231 TNBC cell tumours were homogenized with NH4COOH 50 mM (1:4, w:v). The homogenate (90 μL) was spiked with 5 μL of ZST316 and L-257 working solutions prepared in the range of 100–10,000 ng/mL generating seven tumour calibration standards in the range 25–5000 ng/g. The calibration curve included also a blank and a zero blank standard plasma sample (processed with IS). To prepare QC samples, 90 μL of the homogenate was mixed with an appropriate amount of QC working solutions to obtain QC plasma samples at the nominal concentration of 75, 375, and 1250 ng/g.
# The procedure was similar to that described for plasma in Section 3.3.2.
# (§4) Reversed-phase chromatography was performed under gradient conditions with separation on a HILIC column, C18, 3 μm, 100 A, 2.1 × 150 mm, Waters (Milford, MA, USA), coupled with a 3 μm, 3.9 × 5.0 mm guard column of the same material at the flow rate of 0.2 mL/min. Gradient features were: 10% mobile phase (MP) A (NH4HCO2 10 mM, 10% CH3CN, 0.1% HCOOH) and 90% MP B (CH3CN, 0.1% HCOOH) as initial constant condition; then to 90% MP A in 6 min and constant condition for 1.5 min. Return to start condition in 0.5 min and conditioning for 5.5 min. Total run time: 13.5 min. Analyte detection and quantification were performed using tandem mass spectrometry (MS/MS) operating in positive ionization mode as previously reported for ZST316 and ZST152 [31].
# [2] = Stability of ZST316 and L-257 in frozen plasma; type: in vitro ADME, mice; details: for Mean found value, Stability −20 °C / Accuracy (%), Stability −20 °C: plasma QC, one month at −20 °C; for Mean found value, Stability −20 °C: n=3; for Accuracy (%), Stability −20 °C: percent of nominal
# Experimental: The stability of ZST316 and L-257 in plasma was assessed by analysing QC samples containing both compounds after prolonged storage in the same conditions of the study samples.
# Stability was determined by analysing 3 QCs per concentration level immediately after the preparation, and 3 QCs per concentration level after one month of storage at −20 °C. The analytes were considered stable at each QC concentration when the freshly prepared samples and the stability test samples differed by no more than 15% from the nominal concentrations.
# [3] = parameters: method as in PMID 35164277; details: four-week-old FVB mice; oral, intravenous and intraperitoneal administration; cited from earlier work
# [4] = Tolerability of chronic intraperitoneal ZST316 treatment; type: in vivo; details: ZST316 30 mg/Kg i.p. daily for five days
# Experimental: as §2
# DDAH1 = details: cited from earlier work
# [5] = Plasma pharmacokinetics of ZST316 and L-257 after intraperitoneal ZST316 in MDA-MB-231 xenograft mice (HPLC-MS/MS); type: in vivo, SCID mice
# Experimental: as §1, §2, §3
# To assay ZST316 and L-257, 10 μL of IS (ZST152 WS: 500 ng/mL) were added to 100 μL of study plasma samples, standards, and QCs in a polypropylene tube. The samples were then added with 10 μL of NH4COOH 50 mM, mixed and added with 400 μL CH3OH:0.1% HCOOH, vortex mixed again and centrifuged at 13,200 rpm for 10 min at 4 °C. The supernatant was transferred to a 1.5 mL Eppendorf tube, dried under nitrogen flow and reconstituted with 100 μL of mobile phase (MP) A:B (1:1, v/v). Finally, the samples were centrifuged at 13,200 rpm for 10 min at 4 °C and the supernatant transferred into vials for HPLC-MS/MS analysis.
# as §4
# [6] = acute (single dose) ZST316 30 mg/Kg i.p., 1 h
# [7] = acute ZST316 30 mg/Kg i.p., 1 h, 30 mg/kg
# [8] = acute ZST316 30 mg/Kg i.p., 8 h, 30 mg/kg
# [9] = acute ZST316 30 mg/Kg i.p., 8 h, n=3, 30 mg/kg
# [10] = acute ZST316 30 mg/Kg i.p., 24 h, 30 mg/kg
# [11] = acute ZST316 30 mg/Kg i.p., approximately estimated due to limited time points
# [12] = chronic (five-day) ZST316 30 mg/Kg i.p. daily, 1 h
# [13] = chronic (five-day) ZST316 30 mg/Kg i.p. daily, 24 h
# [14] = chronic ZST316 30 mg/Kg i.p. daily
# [15] = chronic ZST316 30 mg/Kg i.p. daily, day 5, 1 h, 30 mg/kg
# [16] = chronic ZST316 30 mg/Kg i.p. daily, day 5, 8 h, 30 mg/kg
# [17] = chronic ZST316 30 mg/Kg i.p. daily, day 5, 8 h, n=3, 30 mg/kg
# [18] = chronic ZST316 30 mg/Kg i.p. daily, day 5, 24 h, 30 mg/kg
# [19] = chronic ZST316 30 mg/Kg i.p. daily, approximately estimated due to limited time points
# [20] = range over acute and chronic treatment
smiles,measurement,setting,value
COCCNC(N)=NCCC[C@H](N)C(=O)NS(C)(=O)=O [ZST316],mean intra-tumour concentration,[1]; [6],2.0 µg/g
same,mean intra-tumour concentration,"[1]; acute (single dose) ZST316 30 mg/Kg i.p., 24 h",0.04 µg/g
same,tumour AUC,[1]; acute ZST316 30 mg/Kg i.p.,11.4 µg·h/g
same,Cmax tumour,"[1]; acute ZST316 30 mg/Kg i.p., 30 mg/kg",2.00 μg/g and 6.47 μM
same,"tumour concentration, individual mice",[1]; [7],2470 ng/g and 1210 ng/g and 2320 ng/g and 7.99 µM and 3.91 µM and 7.50 µM
same,"tumour concentration, individual mice",[1]; [8],109 ng/g and 173 ng/g and 0.48 µM and 0.35 µM and 0.56 µM and 149 ng/g
same,mean tumour concentration,[1]; [9],144 ng/g and 0.46 μM
same,"tumour concentration, individual mice",[1]; [10],37.3 ng/g and 32.2 ng/g and 49.0 ng/g and 0.12 µM and 0.10 µM and 0.16 µM
same,half-life tumour,[1]; [11],4.5 h
same,time intra-tumour concentration remained above the IC50 and Ki values for DDAH1 inhibition,[1]; after acute ZST316 treatment,15.5 h
same,time intra-tumour concentration remained above the IC50 and Ki values for DDAH1 inhibition,[1]; after chronic ZST316 treatment,16.5 h
same,mean intra-tumour concentration,[1]; [12],2.09 µg/g
same,mean intra-tumour concentration,[1]; [13],0.06 µg/g
same,tumour AUC,[1]; [14],11.8 µg·h/g
same,"tumour concentration, individual mice",[1]; [15],2490 ng/g and 1750 ng/g and 2020 ng/g and 8.05 µM and 5.66 µM and 6.53 µM
same,"tumour concentration, individual mice",[1]; [16],110 ng/g and 146 ng/g and 0.39 µM and 0.36 µM and 0.47 µM and 120 ng/g
same,mean tumour concentration,[1]; [17],125 ng/g and 0.41 μM
same,mean tumour concentration,"[1]; chronic ZST316 30 mg/Kg i.p. daily, day 5, 24 h",57.0 ng/g
same,"tumour concentration, individual mice",[1]; [18],37.8 ng/g and 108 ng/g and 25.2 ng/g and 0.12 µM and 0.35 µM and 0.08 µM
same,mean tumour concentration,"[1]; chronic ZST316 30 mg/Kg i.p. daily, day 5, 24 h, n=3",0.18 µM
same,Cmax tumour,"[1]; chronic ZST316 30 mg/Kg i.p. daily, 30 mg/kg",2.09 μg/g and 6.76 μM
same,half-life tumour,[1]; [19],5.0 h
same,half-life tumour,[1]; [20],4.5 to 5.0 h
same,measured concentration in unknown study tumour sample (Figure 3),"[1]; representative chromatogram, sample taken at 24 h after acute treatment (b8)",37.3 ng/g
same,stability in frozen plasma,[2]; at least one month at −20 °C,stable
same,"Mean found value, Stability −20 °C",[2]; actual value 15.00 ng/mL,14.3 ng/mL
same,"Accuracy (%), Stability −20 °C",[2]; actual value 15.00 ng/mL,95.4%
same,"Mean found value, Stability −20 °C",[2]; actual value 75.00 ng/mL,72.4 ng/mL
same,"Accuracy (%), Stability −20 °C",[2]; actual value 75.00 ng/mL,96.5%
same,"Mean found value, Stability −20 °C",[2]; actual value 250.00 ng/mL,240.0 ng/mL
same,"Accuracy (%), Stability −20 °C",[2]; actual value 250.00 ng/mL,96.0%
same,tolerability,[3],excellent tolerability
same,tolerability / signs of toxicity,[4],"well tolerated, and no signs of toxicity were recorded"
same,Ki expressed as concentration,"DDAH1; equivalent of 261 nM, personal data",0.0803 µg/mL
same,Ki,DDAH1; original value,1000 nM
same,Ki,"DDAH1; revised using a more performant assay, personal data",261 nM
same,accumulation in plasma and tumour during chronic treatment,"[5]; ZST316 30 mg/Kg i.p. daily for five days, day 5 vs day 1, 30 mg/kg",without accumulation; also recorded: No accumulation
same,mean plasma concentration,[5]; [6],2.79 µg/mL
same,mean plasma concentration,"[5]; acute (single dose) ZST316 30 mg/Kg i.p., 24 h, 30 mg/kg",0.05 µg/mL and 0.04 µg/mL
same,Cmax,[5]; acute ZST316 30 mg/Kg i.p.,9.03 µM
same,Cmax plasma,[5]; acute ZST316 30 mg/Kg i.p.,2790 ng/mL
same,Plasma AUC1–24 h,[5]; acute ZST316 30 mg/Kg i.p.,0.050
same,Plasma AUC1–24 h,[5]; acute ZST316 30 mg/Kg i.p. (day 1),15.3 µg·h/mL
same,"plasma concentration, individual mice",[5]; [7],3000 ng/mL and 2150 ng/mL and 3210 ng/mL and 9.70 µM and 6.95 µM and 10.38 µM
same,"plasma concentration, individual mice",[5]; [8],162 ng/mL and 147 ng/mL and 0.38 µM and 0.52 µM and 0.48 µM and 119 ng/mL
same,mean plasma concentration,[5]; [9],143 ng/mL and 0.46 μM
same,"plasma concentration, individual mice",[5]; [10],64.2 ng/mL and 53.7 ng/mL and 25 ng/mL and 0.21 µM and 0.17 µM and 0.08 µM
same,half-life plasma,[5]; [11],4.4 h
same,mean plasma concentration,[5]; [12],2.22 µg/mL
same,mean plasma concentration,[5]; [13],0.12 µg/mL
same,Cmax,[5]; [14],7.18 µM
same,Cmax plasma,[5]; [14],2220 ng/mL
same,Plasma AUC1–24 h,[5]; [14],0.040
same,Plasma AUC1–24 h,[5]; chronic ZST316 30 mg/Kg i.p. daily (day 5),12.4 µg·h/mL
same,"plasma concentration, individual mice",[5]; [15],2440 ng/mL and 2030 ng/mL and 2200 ng/mL and 7.89 µM and 6.57 µM and 7.12 µM
same,"plasma concentration, individual mice",[5]; [16],81.7 ng/mL and 54.7 ng/mL and 41.8 ng/mL and 0.26 µM and 0.18 µM and 0.14 µM
same,mean plasma concentration,[5]; [17],59.4 ng/mL and 0.19 μM
same,"plasma concentration, individual mice",[5]; [18],101 ng/mL and 173 ng/mL and 86.3 ng/mL and 0.33 µM and 0.56 µM and 0.28 µM
same,half-life plasma,[5]; [19],7.1 h
same,half-life plasma,[5]; [20],4.4 to 7.1 h
same,measured concentration in unknown study plasma sample (Figure 2),"[5]; representative chromatogram, sample taken at 1 h after acute treatment (b8)",2200 ng/mL
